The values below come from the NIST ThermoML archive (doi:10.1016/j.fluid.2016.08.019).

Data set [1] is described as follows: Molar enthalpy of transition or fusion. To be noted: Crystal; DSC.
The conditions of data set [2]: Crystal; DTA.

Numbers after ± are expanded uncertainties.

As to `CCOc1ccccc1C(N)=O` [Ethenzamide], in data set [1], the “Molar enthalpy of transition or fusion” value was 4.89 ± 0.222 kcal/mol. Moreover, the Normal melting temperature in data set [2] is 138.33 ± 0.39 °C.
